Assay results: US20230203023A1, “SALT AND CRYSTAL FORMS OF GLP-1R AGONISTS AND USES THEREOF” (QILU REGOR THERAPEUTICS INC., priority 2020, published 2023)
Counter-ions that a name gives are not always drawn. Marks after values point to notes of the source that are not given here.

Columns and labels:
Format in all cases: physicochemical
[1] = Kinetic solubility test in water and bio-relevant media (SGF, FaSSIF, FeSSIF); conditions: for S: solubility: 37° C.; for Purity (%), area percentage of API: for reference only (suspensions); for FC: form change: residual solids by XRPD; for pH: supernatant
Procedure: (§1) Weigh 100 mg of sodium chloride and 50 mg of Triton X-100 into a 50-mL volumetric flask. Add appropriate volume of purified water and sonicate until all solids are completely dissolved. Add about 68 μL of 12 M HCl and sufficient purified water closely to the target volume and adjust to pH 1.8. Dilute to volume with purified water, mix well and check the pH with a pH meter.
as §1, with “170” for “100”, “phosphate monobasic, 21” for “chloride and 50”, “sodium hydroxide and 310 mg of sodium chloride, 110 mg of SIF powder” for “Triton X-100”, “Add” for “Add about 68 μL of 12 M HCl and”, “6.5.” for “1.8.”
Weigh 0.41 mL of glacial acetic acid, 202 mg of sodium hydroxide and 594 mg of sodium chloride, 560 mg of SIF powder into a 50-mL volumetric flask. Add appropriate volume of purified water to dissolve the solids. Then add sufficient purified water closely to the target volume and adjust to pH 5.0. Dilute to volume with purified water, mix well and check the pH with a pH meter.
Kinetic solubility was evaluated in water and three bio-relevant media (SGF, FaSSIF and FeSSIF) for 1/4/24 hours. 3-4 mg of solids were suspended in 3 mL each medium (solid loading: 1 mg/mL, calculated using freeform) to get a suspension, followed by rolling (25 rpm) at 37° C. for 1/4/24 hours. At each time point, ˜1.0 mL of suspension was sampled out for centrifugation (12000 rpm, 2 min) and filtration through 0.45 μm PTFE membrane to obtain supernatant for HPLC and pH tests, the residual solids were analyzed by XRPD.
Kinetic solubility was evaluated for 1:1 Compound II Citrate Salt (Form A), 1:1 Compound II Tris Salt (Form B), and freeform of Compound II in water and three bio-relevant media (SGF, FaSSIF and FeSSIF) for 1/4/24 hours. 3-4 mg of solids were suspended in 3 mL each medium (solid loading:
1 mg/mL, calculated using freeform) to get a suspension, followed by rolling (25 rpm) at 37° C. for 1/4/24 hours. At each time point, ˜1.0 mL of suspension was sampled out for centrifugation (12000 rpm, 2 min) and filtration through 0.45 μm PTFE membrane to obtain supernatant for HPLC and pH tests, the residual solids were analyzed by XRPD. […] The purity results were for reference only since the samples were all suspensions.

[2] = Solid stability evaluation (II/II), HPLC in triplicate
Procedure: The chemical stability of 1:1 Compound II Citrate Salt (Form A) and 1:1 Compound II Tris Salt (Form B) was further evaluated at solid state, samples were stored under the ambient condition or 40° C./75% RH for 1 day and 3 days, respectively.

[3] = Solution stability evaluation in SGF (pH 1.8) and pH 8.0 buffer at RT; conditions: RT
Procedure: as §1
Add sufficient purified water closely to the target volume and adjust to pH 8.0. Dilute to volume with purified water, mix well and check the pH with a pH meter. […]
Solution stability was evaluated for 1:1 Compound II Citrate Salt (Form A) and 1:1 Compound II Tris Salt (Form B) in SGF (pH 1.8) and pH 8.0 buffer at RT. Clear solutions were prepared at two concentrations (0.01 mg/mL, 0.05 mg/mL) and then placed at RT for 6 hours, 1/5 days or 6 hours, 1/3/7 days. […] The HPLC purity and pH value were tested and the results were summarized from Table 7-3-1 to Table 7-3-4.

[4] = 6 hours, 0.01 mg/mL, pH 1.8 (SGF)
[5] = 6 hours, 0.01 mg/mL, pH 8.0 (50 mM phosphate)
[6] = 6 hours, 0.05 mg/mL, pH 1.8 (SGF)
[7] = 6 hours, 0.05 mg/mL, pH 8.0 (50 mM phosphate)
[8] = 1 day, 0.01 mg/mL, pH 1.8 (SGF)
[9] = 1 day, 0.01 mg/mL, pH 8.0 (50 mM phosphate)
[10] = 1 day, 0.05 mg/mL, pH 1.8 (SGF)
[11] = 1 day, 0.05 mg/mL, pH 8.0 (50 mM phosphate)
[12] = 3 days, 0.01 mg/mL, pH 1.8 (SGF)
[13] = 3 days, 0.01 mg/mL, pH 8.0 (50 mM phosphate)
[14] = 3 days, 0.05 mg/mL, pH 1.8 (SGF)
[15] = 3 days, 0.05 mg/mL, pH 8.0 (50 mM phosphate)
[16] = 7 days, 0.01 mg/mL, pH 1.8 (SGF)
[17] = 7 days, 0.01 mg/mL, pH 8.0 (50 mM phosphate)
[18] = 7 days, 0.05 mg/mL, pH 1.8 (SGF)
[19] = 7 days, 0.05 mg/mL, pH 8.0 (50 mM phosphate)
[20] = Initial, 0.01 mg/mL, pH 1.8 (SGF)
[21] = Initial, 0.01 mg/mL, pH 8.0 (50 mM phosphate)
[22] = Initial, 0.05 mg/mL, pH 1.8 (SGF)
[23] = Initial, 0.05 mg/mL, pH 8.0 (50 mM phosphate)

N#Cc1ccc(COc2cccc(C3=CCN(Cc4nc5ccc(C(=O)O)cc5n4C[C@@H]4CCO4)CC3)n2)c(F)c1 [Tris salt Form B, (S)-2-((6-((4-cyano-2-fluorobenzyl)oxy)-3′,6′-dihydro-[2,4′-bipyridin]-1′(2′H)-yl)methyl)-1-(oxetan-2-ylmethyl)-1H-benzo[d]imidazole-6-carboxylic acid]
S: solubility ([1]; FaSSIF, 1 hour): 70 µg/mL
Purity (%), area percentage of API ([1]; FaSSIF, 1 hour): 72.58%
S: solubility ([1]; FaSSIF, 4 hours): 50 µg/mL
Purity (%), area percentage of API ([1]; FaSSIF, 4 hours): 59.86%
S: solubility ([1]; FaSSIF, 24 hours): 100 µg/mL
Purity (%), area percentage of API ([1]; FaSSIF, 24 hours): 72.13%
S: solubility ([1]; FeSSIF, 1 hour): 200 µg/mL
Purity (%), area percentage of API ([1]; FeSSIF, 1 hour): 98.18%
S: solubility ([1]; FeSSIF, 4 hours): 300 µg/mL
Purity (%), area percentage of API ([1]; FeSSIF, 4 hours): 93.37%
S: solubility ([1]; FeSSIF, 24 hours): 300 µg/mL
Purity (%), area percentage of API ([1]; FeSSIF, 24 hours): 80.52%
S: solubility ([1]; H2O, 1 hour): 400 µg/mL
Purity (%), area percentage of API ([1]; H2O, 1 hour): 93.07%
S: solubility ([1]; H2O, 4 hours): 900 µg/mL
Purity (%), area percentage of API ([1]; H2O, 4 hours): 93.13%
S: solubility ([1]; H2O, 24 hours): 600 µg/mL
Purity (%), area percentage of API ([1]; H2O, 24 hours): 92.03%
Solubility in H2O, comparison in words ([1]; H2O, compared with the other tested materials): better solubility
S: solubility ([1]; SGF, 1 hour): 600 µg/mL
Purity (%), area percentage of API ([1]; SGF, 1 hour): 93.44%
S: solubility ([1]; SGF, 4 hours): 200 µg/mL
Purity (%), area percentage of API ([1]; SGF, 4 hours): 84.69%
S: solubility ([1]; SGF, 24 hours): 200 µg/mL
Purity (%), area percentage of API ([1]; SGF, 24 hours): 82.04%
FC: form change ([1]; FaSSIF, 4 hours): Yes
FC: form change ([1]; FaSSIF, 24 hours): Yes
FC: form change ([1]; FeSSIF, 1 hour): No
FC: form change ([1]; FeSSIF, 4 hours): Yes
FC: form change ([1]; FeSSIF, 24 hours): Yes
FC: form change ([1]; H2O, 1 hour): No
FC: form change ([1]; H2O, 4 hours): Yes
FC: form change ([1]; H2O, 24 hours): Yes
FC: form change ([1]; SGF, 1 hour): Yes
FC: form change ([1]; SGF, 4 hours): Yes
FC: form change ([1]; SGF, 24 hours): Yes
pH ([1]; FaSSIF, 1 hour): 6.6
pH ([1]; FaSSIF, 4 hours): 6.6
pH ([1]; FaSSIF, 24 hours): 6.5
pH ([1]; FeSSIF, 1 hour): 5.1
pH ([1]; FeSSIF, 4 hours): 5.1
pH ([1]; FeSSIF, 24 hours): 5.0
pH ([1]; H2O, 1 hour): 7.6
pH ([1]; H2O, 4 hours): 7.8
pH ([1]; H2O, 24 hours): 7.9
pH ([1]; SGF, 1 hour): 1.9
pH ([1]; SGF, 4 hours): 2.0
pH ([1]; SGF, 24 hours): 2.0
Solubility in SGF, FaSSIF and FeSSIF compared with freeform ([1]; within 1 hour): higher than that of freeform
Ave. Purity (area %) ([2]; 40° C./75% RH (open), 1 day): 94.5 area %
Ave. Purity (area %) ([2]; 40° C./75% RH (open), 3 days): 94.8 area %
Ave. Purity (area %) ([2]; Ambient condition (open), 1 day): 94.4 area %
Ave. Purity (area %) ([2]; Ambient condition (open), 3 days): 94.2 area %
Ave. Purity (area %) ([2]; Initial): 95.5 area %
Purity (% area) [3, 4]: 94.92 % area
Purity vs. Initial (%) [3, 4]: 99.7%
pH [3, 4]: 1.8
Purity (% area) [3, 5]: 98.97 % area
Purity vs. Initial (%) [3, 5]: 99.9%
pH [3, 5]: 8.0
Purity (% area) [3, 6]: 97.53 % area
Purity vs. Initial (%) [3, 6]: 99.3%
pH [3, 6]: 1.8
Purity (% area) [3, 7]: 99.28 % area
Purity vs. Initial (%) [3, 7]: 100.0%
pH [3, 7]: 8.0
Purity (% area) [3, 8]: 94.11 % area
Purity vs. Initial (%) [3, 8]: 98.8%
pH [3, 8]: 1.8
Purity (% area) [3, 9]: 98.38 % area
Purity vs. Initial (%) [3, 9]: 99.3%
pH [3, 9]: 8.0
Purity (% area) [3, 10]: 96.40 % area
Purity vs. Initial (%) [3, 10]: 98.1%
pH [3, 10]: 1.8
Purity (% area) [3, 11]: 98.86 % area
Purity vs. Initial (%) [3, 11]: 99.6%
pH [3, 11]: 8.0
Purity (% area) [3, 12]: 91.81 % area
Purity vs. Initial (%) [3, 12]: 96.4%
pH [3, 12]: 1.8
Purity (% area) [3, 13]: 98.26 % area
Purity vs. Initial (%) [3, 13]: 99.2%
pH [3, 13]: 8.0
Purity (% area) [3, 14]: 93.38 % area
Purity vs. Initial (%) [3, 14]: 95.0%
pH [3, 14]: 1.8
Purity (% area) [3, 15]: 98.98 % area
Purity vs. Initial (%) [3, 15]: 99.7%
pH [3, 15]: 8.0
Purity (% area) [3, 16]: 87.14 % area
Purity vs. Initial (%) [3, 16]: 91.5%
pH [3, 16]: 1.8
Purity (% area) [3, 17]: 97.31 % area
Purity vs. Initial (%) [3, 17]: 98.3%
pH [3, 17]: 8.0
Purity (% area) [3, 18]: 87.15* % area
Purity vs. Initial (%) [3, 18]: 88.7%
pH [3, 18]: 1.8
Purity (% area) [3, 19]: 98.75 % area
Purity vs. Initial (%) [3, 19]: 99.5%
pH [3, 19]: 8.0
Purity (% area) [3, 20]: 95.25 % area
pH [3, 20]: 1.8
Purity (% area) [3, 21]: 99.04 % area
pH [3, 21]: 8.0
Purity (% area) [3, 22]: 98.26 % area
pH [3, 22]: 1.8
Purity (% area) [3, 23]: 99.27 % area
pH [3, 23]: 8.0
